What all share (format): cell-based
The target in assay [1] is T1, TRPC6 (Homo sapiens, UniProt Q9Y210).
T1 sequence (Q9Y210 1-931): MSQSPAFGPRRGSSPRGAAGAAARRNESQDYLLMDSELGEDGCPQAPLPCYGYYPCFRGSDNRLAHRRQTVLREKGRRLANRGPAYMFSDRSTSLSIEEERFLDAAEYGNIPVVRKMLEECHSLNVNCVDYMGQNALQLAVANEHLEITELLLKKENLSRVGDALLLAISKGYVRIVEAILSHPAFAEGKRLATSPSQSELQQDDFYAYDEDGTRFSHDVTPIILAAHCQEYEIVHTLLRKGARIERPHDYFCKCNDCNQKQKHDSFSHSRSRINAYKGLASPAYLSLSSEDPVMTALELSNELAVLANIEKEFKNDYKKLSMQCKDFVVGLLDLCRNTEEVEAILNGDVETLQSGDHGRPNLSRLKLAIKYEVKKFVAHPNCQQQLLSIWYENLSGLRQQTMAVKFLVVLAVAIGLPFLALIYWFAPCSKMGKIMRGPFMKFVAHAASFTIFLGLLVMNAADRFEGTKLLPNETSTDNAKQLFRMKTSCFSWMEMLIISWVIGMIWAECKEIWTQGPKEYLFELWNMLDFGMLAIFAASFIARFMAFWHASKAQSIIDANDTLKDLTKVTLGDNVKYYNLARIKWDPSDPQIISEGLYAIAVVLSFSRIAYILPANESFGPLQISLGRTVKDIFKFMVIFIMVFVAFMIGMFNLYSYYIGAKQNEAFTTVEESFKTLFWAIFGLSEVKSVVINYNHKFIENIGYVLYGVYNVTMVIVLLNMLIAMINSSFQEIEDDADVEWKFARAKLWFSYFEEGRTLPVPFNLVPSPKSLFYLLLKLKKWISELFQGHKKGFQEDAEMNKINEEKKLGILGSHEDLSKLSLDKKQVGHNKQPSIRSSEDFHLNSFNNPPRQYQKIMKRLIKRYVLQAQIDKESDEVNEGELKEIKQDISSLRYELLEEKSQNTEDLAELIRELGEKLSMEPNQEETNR
Briefly: Fura-2 calcium imaging in HEK-TRPC6 cells; also whole-cell patch clamp of hTRPC6 in HEK293. Details: human TRPC6 expressed in HEK cells. For orientation: In patch-clamp work, channel activity is measured electrically.

Assay [2] addresses T2, Orai1 (Homo sapiens, UniProt Q96D31).
T2 construct: Orai1/STIM1 over-expressed in HEK cells; with STIM1
Briefly: ICRAC current inhibition in HEK cells over-expressing Orai1/STIM1 (data not shown). Particulars: HEK293; read-out: % inhibition at 10 μmol/L.

In assay [3] the target is T1, TRPC6. Briefly: Fura-2 calcium imaging in HEK-TRPC6 cells, inhibition of GSK-2934A-induced signal. Details: human TRPC6 stably expressed in HEK cells.

T2 sequence (Q96D31 whole entry): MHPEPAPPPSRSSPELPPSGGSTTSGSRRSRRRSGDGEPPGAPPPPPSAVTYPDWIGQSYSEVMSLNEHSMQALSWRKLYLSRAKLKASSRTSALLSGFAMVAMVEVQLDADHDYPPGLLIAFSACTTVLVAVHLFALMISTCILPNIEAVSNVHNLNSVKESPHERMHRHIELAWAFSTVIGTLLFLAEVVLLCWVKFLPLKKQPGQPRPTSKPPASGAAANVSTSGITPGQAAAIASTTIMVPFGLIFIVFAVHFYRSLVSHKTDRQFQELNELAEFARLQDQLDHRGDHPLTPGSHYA
T2 sequence (Q13586 23-685 partner): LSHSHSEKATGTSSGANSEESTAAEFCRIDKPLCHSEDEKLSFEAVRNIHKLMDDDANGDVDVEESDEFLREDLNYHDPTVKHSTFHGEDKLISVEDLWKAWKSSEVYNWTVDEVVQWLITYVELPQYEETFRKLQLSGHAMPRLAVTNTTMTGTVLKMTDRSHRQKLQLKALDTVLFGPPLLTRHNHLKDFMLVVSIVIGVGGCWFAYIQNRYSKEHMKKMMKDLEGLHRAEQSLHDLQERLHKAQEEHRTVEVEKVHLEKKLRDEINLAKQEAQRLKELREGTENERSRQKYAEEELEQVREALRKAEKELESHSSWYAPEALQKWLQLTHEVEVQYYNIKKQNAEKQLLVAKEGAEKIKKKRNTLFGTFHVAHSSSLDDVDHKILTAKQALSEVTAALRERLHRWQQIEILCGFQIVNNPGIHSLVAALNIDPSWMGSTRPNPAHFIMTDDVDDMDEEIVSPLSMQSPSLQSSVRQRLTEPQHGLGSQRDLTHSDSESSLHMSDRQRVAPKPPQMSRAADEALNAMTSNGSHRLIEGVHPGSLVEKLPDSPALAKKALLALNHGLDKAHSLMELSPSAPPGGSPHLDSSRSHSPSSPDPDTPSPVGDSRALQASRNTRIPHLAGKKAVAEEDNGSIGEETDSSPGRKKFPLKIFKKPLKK

With `O=C(c1cc2c(s1)CCCCC2)N1CCC(n2c(=O)[nH]c3ccccc32)CC1` [GSK-2934A, GSK1702934A], the EC50 in assay [1] amounted to 6.6 pEC50.
`COc1ccc(OC)c(-c2ccc(NC(=O)c3ccncc3F)cc2)c1` [Synta66]: the inhibition at 10 µM in assay [2] stood at 94 ± 3%.
Take `Cc1sc(Nc2ccc(Cl)cc2F)nc1C(=O)N1CCC[C@H](C)[C@@H]1C` [GSK-3503A, GSK2833503A]: the IC50 in assay [3] came to 7.8 pIC50.

The values are drawn from article PMC5350174, “Orai and TRPC channel characterization in FcεRI‐mediated calcium signaling and mediator secretion in human mast cells” (Physiological Reports, 2017).
